Biological target: T1, Integrin-linked kinase (ILK) (Homo sapiens, UniProt Q13418)
T1 sequence (Q13418 1-452): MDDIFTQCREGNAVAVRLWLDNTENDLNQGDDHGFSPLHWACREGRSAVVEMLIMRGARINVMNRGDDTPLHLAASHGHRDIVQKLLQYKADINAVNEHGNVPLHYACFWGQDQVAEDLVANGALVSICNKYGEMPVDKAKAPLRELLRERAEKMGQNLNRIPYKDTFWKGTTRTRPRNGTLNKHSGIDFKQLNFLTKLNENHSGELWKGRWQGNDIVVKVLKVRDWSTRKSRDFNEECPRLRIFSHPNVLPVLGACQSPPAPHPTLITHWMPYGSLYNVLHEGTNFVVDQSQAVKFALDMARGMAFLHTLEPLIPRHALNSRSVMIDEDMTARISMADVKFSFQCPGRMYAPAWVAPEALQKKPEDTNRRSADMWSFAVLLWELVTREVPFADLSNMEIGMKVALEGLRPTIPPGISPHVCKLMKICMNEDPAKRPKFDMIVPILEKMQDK
Test: SPR (Biacore X-100, ILK immobilized on CM5 chip by amine coupling, Cpd22 […])
Type: binding

CNC(=O)CCc1cc(-c2ccc(-c3ccc(C(F)(F)F)cc3)cc2)n(-c2ccc(N3CCNCC3)cc2)n1 [Cpd22]
Kd: ~592 µM
